Tests used:
[1] = tested on: human primary cells; assay: Total score for desired parameter modulation over the BioMAP systems of Table 1; assay type: cell-based; conditions: penalties not applied
Description: (§1) Each screened compound is scored according to its modulation of the selected readout parameters. Compounds receive a positive score (score of 1) or negative score (score of 0) for each readout parameter set forth in Table 2 that is modulated in the desired direction. […] Parameters may be penalized by making the positive score a −1 for parameters where regulation is opposite to the desired direction.
The relative importance of each parameter may be weighted by the screener to select those parameters of greatest interest for a particular application.
Compounds were first selected to inhibit PAI-1 in the HDFT as an indication of TBF-b signaling inhibition without being cytotoxic. […] Blank spots in Table 3 were where parameter was not assayed. Penalties were not applied for this scoring.
BioMAP Systems are designed to model complex human disease biology in a practical in vitro format. This is achieved by stimulating human primary cells (single cell type or defined mixtures of cell types) such that multiple disease-relevant signaling pathways are simultaneously active. The choice of cell types and stimulations is guided by the knowledge of disease biology and mechanisms. Incorporating appropriate cell types and stimulating signaling pathways relevant to disease states allows association of biological activities detected in BioMAP Systems with disease processes. Drug effects are then recorded by measuring biologically meaningful protein readouts that provide coverage of biological space of interest (e.g., inflammation, tissue remodeling) and allow discrimination between different drug classes tested.
(§2) Cell culture. Human umbilical vein endothelial cells (HUVEC) were pooled from multiple donors, cultured according to standard methods, and plated into microtiter plates at passage 4. Cell culture medium for all systems containing HUVEC included hydrocortisone. Coronary artery smooth muscle cells (CASM3C) and umbilical artery smooth muscle cells (HSM3C) were cultured according to standard procedures. Peripheral blood mononuclear cells (PBMC) were prepared from buffy coats from normal human donors according to standard methods. Monocyte-derived macrophages were differentiated in the presence of M-CSF for 7 d according to standard procedures. Human dermal fibroblasts were pooled from 3 donors, cultured according to standard methods, and plated confluent 24 h before stimulation. Cell culture medium for all systems containing fibroblasts and keratinocytes contained low hydrocortisone. Epidermal keratinocytes and bronchial epithelial cells from 3 donors were cultured according to standard procedures and pooled when plated into microtiter plates. For keratinocyte-fibroblast co-cultures, cells were plated simultaneously 24 h before stimulation. For bronchial epithelial cell-fibroblast co-cultures, fibroblasts were plated and cultured 48 before addition of epithelial cells, then cultured another 24 hr before stimulation. Concentrations/amounts of agents added to confluent microtiter plates to build each system: cytokines (IL-1β, 1 ng/ml; TNF-α, 5 ng/ml; IFN-γ, 20 ng/ml; IL-4, 5 ng/ml), activators (SAg, 20 ng/ml; histamine, 10 μM; zymosan, 10 μg/ml; or LPS, 2 ng/ml), growth factors (TGF-β, 5 ng/ml; EGF, bFGF, and PDGF-BB, 10 ng/ml), and PBMC (7.5×10^4 cells/well) or macrophages (3.5×10^4 cells/well).
(§3) Compounds. Compounds were prepared in the solvent directed, added 1 hr before stimulation of the cells, and were present during the 24 hr stimulation period for the measurement of parameters listed in Table 2. For proliferation, compounds added 1 hr before stimulation of the cells with cytokines, and were present during the 48 to 72 hr assay. If prepared in DMSO, the final concentration of solvent was 0.1% or less.
Readout Parameter Measurements. The levels of readout parameters were measured by ELISA.

[2] = tested on: Umbilical Vein Endothelial Cells; assay: BioMAP 3C system (IL-1β + TNF-α + IFN-γ), scoring of readout parameters; assay type: cell-based, human; conditions: for HLA-DR score: desired change decrease; for uPAR score: desired change increase
Description: as §1, §2, §3
(§4) Readout Parameter Measurements. The levels of readout parameters were measured by ELISA. Briefly, microtiter plates are treated, blocked, and then incubated with primary antibodies or isotype control antibodies (0.01-0.5 microg/ml) for 1 hr. After washing, plates were incubated with a peroxidase-conjugated anti-mouse IgG secondary antibody or a biotin-conjugated anti-mouse IgG antibody for 1 hr followed by streptavidin-HRP for 30 min. Plates were washed and developed with TMB substrate and the absorbance (OD) was read at 450 nm (subtracting the background absorbance at 650 nm). Quantitation of TNF-alpha or PGE2 in the LPS system was done using a commercially available kit according to the manufacturer's directions. Proliferation of endothelial cells (HUVEC and CAEC), smooth muscle cells (SMC and CASMC), and PBMC (T cells) was quantitated by Alamar Blue reduction or SRB.
(§5) Data analysis. Mean OD values for each parameter were calculated for compounds run in duplicate. The mean value (or single well OD value) for each parameter in a treated sample was then divided by the mean value from an appropriate control to generate a ratio. All ratios were then log10 transformed. 95% significance prediction envelopes (grey shading in Figures) were calculated for historical controls.

[3] = tested on: Peripheral Blood Mononuclear Cells + Umbilical Vein Endothelial Cells; assay: BioMAP LPS system (TLR4), scoring of readout parameters; assay type: cell-based, human; conditions: LPS (by position); desired change decrease
Description: as §1, §2, §3, §4, §5

Compound: COc1cc2c(c(OC)c1OC)-c1ccc(OC)c(=O)cc1[C@@H](NC(C)=O)CC2 [Colchicine]
- Score (Fraction correctly modulated parameters out of 45-58 total) [1]: 0.17
- HLA-DR score [2]: 0
- uPAR score [2]: 0
- TF score [3]: 0

Compound: CCc1oc2ccccc2c1C(=O)c1cc(Br)c(O)c(Br)c1 [Benzbromarone]
- Score (Fraction correctly modulated parameters out of 45-58 total) [1]: 0.36
- HLA-DR score [2]: 0
- uPAR score [2]: 0
- TF score [3]: 0

Compound: Fc1ccc(C(OCCN2CCN(CCCc3ccccc3)CC2)c2ccc(F)cc2)cc1 [GBR 12909]
- Score (Fraction correctly modulated parameters out of 45-58 total) [1]: 0.29
- HLA-DR score [2]: 0
- uPAR score [2]: 0
- TF score [3]: 0

Compound: Antimycin A
- Score (Fraction correctly modulated parameters out of 45-58 total) [1]: 0.45
- HLA-DR score [2]: 0
- uPAR score [2]: 0
- TF score [3]: 1

Compound: COc1cc(-c2ccc(=O)[nH]n2)ccc1OC(F)F [Zardaverine]
- Score (Fraction correctly modulated parameters out of 45-58 total) [1]: 0.25
- HLA-DR score [2]: 0
- uPAR score [2]: 0
- TF score [3]: 1

Compound: C[C@]12C=CC(=O)C=C1CC[C@@H]1[C@@H]2[C@@H](O)C[C@@]2(C)[C@H]1CC[C@]2(O)C(=O)CO [Prednisolone]
- Score (Fraction correctly modulated parameters out of 45-58 total) [1]: 0.17
- HLA-DR score [2]: 1
- uPAR score [2]: 0
- TF score [3]: 0

Compound: O=C(O)c1ccccc1Nc1cccc(C(F)(F)F)c1 [Flufenamic Acid]
- Score (Fraction correctly modulated parameters out of 45-58 total) [1]: 0.28
- HLA-DR score [2]: 0
- uPAR score [2]: 0
- TF score [3]: 0

Compound: O=c1cc(-c2ccc(O)c(O)c2)oc2cc(O)cc(O)c12 [Luteolin]
- Score (Fraction correctly modulated parameters out of 45-58 total) [1]: 0.36
- HLA-DR score [2]: 0
- uPAR score [2]: 0
- TF score [3]: 1

Compound: COC(=O)Nc1nc2ccc(SC(C)C)cc2[nH]1 [Methiazole]
- Score (Fraction correctly modulated parameters out of 45-58 total) [1]: 0.55
- HLA-DR score [2]: 0
- uPAR score [2]: 0
- TF score [3]: 1

Compound: CCN(CC)CCNc1ccc(CO)c2sc3ccccc3c(=O)c12 [Hycanthone]
- Score (Fraction correctly modulated parameters out of 45-58 total) [1]: 0.28
- HLA-DR score [2]: 0
- uPAR score [2]: 0
- TF score [3]: 1

Compound: Cn1cnc([N+](=O)[O-])c1Sc1ncnc2nc[nH]c12 [Azathioprine]
- Score (Fraction correctly modulated parameters out of 45-58 total) [1]: 0.12
- HLA-DR score [2]: 0
- uPAR score [2]: 0
- TF score [3]: 0

Compound: Cc1c(Cl)cccc1Nc1ccccc1C(=O)O [Tolfenamic Acid]
- Score (Fraction correctly modulated parameters out of 45-58 total) [1]: 0.33
- HLA-DR score [2]: 0
- uPAR score [2]: 0
- TF score [3]: 0

Compound: C=C1CC[C@H](O)C/C1=C/C=C1\CCC[C@]2(C)[C@@H]([C@H](C)/C=C/[C@H](C)C(C)C)CC[C@@H]12 [Calciferol]
- Score (Fraction correctly modulated parameters out of 45-58 total) [1]: 0.29
- HLA-DR score [2]: 0
- uPAR score [2]: 1
- TF score [3]: 0

Compound: CCCCN(CCCC)CCC(O)c1cc2c(Cl)cc(Cl)cc2c2cc(C(F)(F)F)ccc12 (stereo not drawn) [Halofantrine]
- Score (Fraction correctly modulated parameters out of 45-58 total) [1]: 0.27
- HLA-DR score [2]: 0
- uPAR score [2]: 0
- TF score [3]: 0

Compound: (R)-(−)-Apomorphine
- Score (Fraction correctly modulated parameters out of 45-58 total) [1]: 0.31
- HLA-DR score [2]: 0
- uPAR score [2]: 0
- TF score [3]: 0
